Our source for the % of control and % of engagement values is ChEMBL document CHEMBL5465560, “Selectivity Literature for EUbOPEN Chemogenomic Library” (2024).

Each structure is given as a SMILES string.

The target of assay [1] is T1, Serine/threonine-protein kinase TBK1 (Homo sapiens) (UniProt Q9UHD2).
T1 sequence (whole entry): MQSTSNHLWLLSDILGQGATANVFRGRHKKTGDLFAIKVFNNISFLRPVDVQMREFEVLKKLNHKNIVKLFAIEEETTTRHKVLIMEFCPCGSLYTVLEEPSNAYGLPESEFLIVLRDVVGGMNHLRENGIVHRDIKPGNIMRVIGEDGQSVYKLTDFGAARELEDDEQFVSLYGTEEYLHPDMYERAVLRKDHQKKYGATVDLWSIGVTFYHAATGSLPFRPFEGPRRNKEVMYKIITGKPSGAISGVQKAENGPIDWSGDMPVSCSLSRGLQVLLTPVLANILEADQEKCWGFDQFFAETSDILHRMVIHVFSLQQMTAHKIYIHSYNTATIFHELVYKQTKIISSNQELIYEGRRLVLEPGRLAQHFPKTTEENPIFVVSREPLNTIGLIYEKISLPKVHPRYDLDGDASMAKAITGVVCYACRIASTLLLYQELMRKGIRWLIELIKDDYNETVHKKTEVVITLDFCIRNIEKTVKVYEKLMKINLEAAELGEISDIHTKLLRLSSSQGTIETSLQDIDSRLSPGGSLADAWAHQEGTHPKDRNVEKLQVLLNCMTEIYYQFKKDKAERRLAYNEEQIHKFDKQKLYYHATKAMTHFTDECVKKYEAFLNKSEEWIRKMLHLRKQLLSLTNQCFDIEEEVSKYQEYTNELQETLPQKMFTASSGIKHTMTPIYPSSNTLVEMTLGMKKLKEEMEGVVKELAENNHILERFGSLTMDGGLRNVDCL
Particulars: at 10 µM.

In assay [2] the target is T2, Serine/threonine-protein kinase Nek11 (Homo sapiens) (UniProt Q8NG66).
T2 sequence (whole entry): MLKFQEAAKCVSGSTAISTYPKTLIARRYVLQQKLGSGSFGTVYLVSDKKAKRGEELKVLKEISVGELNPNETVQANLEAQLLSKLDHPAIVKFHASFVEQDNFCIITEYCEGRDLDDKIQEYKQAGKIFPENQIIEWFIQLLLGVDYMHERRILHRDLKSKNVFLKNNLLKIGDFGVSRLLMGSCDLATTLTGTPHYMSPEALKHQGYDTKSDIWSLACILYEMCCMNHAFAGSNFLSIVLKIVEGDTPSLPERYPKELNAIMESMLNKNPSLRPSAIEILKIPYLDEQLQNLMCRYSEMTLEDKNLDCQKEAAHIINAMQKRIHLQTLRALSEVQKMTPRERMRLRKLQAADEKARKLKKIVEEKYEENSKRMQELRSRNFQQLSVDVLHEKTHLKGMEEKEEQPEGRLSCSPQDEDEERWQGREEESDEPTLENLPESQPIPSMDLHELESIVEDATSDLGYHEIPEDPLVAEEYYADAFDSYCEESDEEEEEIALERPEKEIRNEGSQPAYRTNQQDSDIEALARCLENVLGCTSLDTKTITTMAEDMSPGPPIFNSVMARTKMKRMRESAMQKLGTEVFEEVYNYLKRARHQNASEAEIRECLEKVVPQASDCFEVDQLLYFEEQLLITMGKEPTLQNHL
The experiment in a line: Selectivity interaction (Ambit KINOMEscan and KiNATiv profiling in Jurkat cells) EUB0000090b NEK11. The assay is classed as cell-based. To be noted: at 1 µM.

Assay [3] has as its target Activin receptor type-2B (Homo sapiens) (UniProt Q13705). The experiment in a line: Selectivity interaction (KinomeScan (DiscoverX)) EUB0000618a ACVR2B. Particulars: at 10 µM.
Assay [4] has as its target Protein kinase C delta type (Homo sapiens) (UniProt Q05655). Briefly: Selectivity interaction (KinomeScan (DiscoverX)) EUB0000092b PRKCD. To be noted: at 10 µM.
Assay [5] addresses T3, Inhibitor of nuclear factor kappa-B kinase subunit epsilon (Homo sapiens) (UniProt Q14164).
T3 sequence (whole entry): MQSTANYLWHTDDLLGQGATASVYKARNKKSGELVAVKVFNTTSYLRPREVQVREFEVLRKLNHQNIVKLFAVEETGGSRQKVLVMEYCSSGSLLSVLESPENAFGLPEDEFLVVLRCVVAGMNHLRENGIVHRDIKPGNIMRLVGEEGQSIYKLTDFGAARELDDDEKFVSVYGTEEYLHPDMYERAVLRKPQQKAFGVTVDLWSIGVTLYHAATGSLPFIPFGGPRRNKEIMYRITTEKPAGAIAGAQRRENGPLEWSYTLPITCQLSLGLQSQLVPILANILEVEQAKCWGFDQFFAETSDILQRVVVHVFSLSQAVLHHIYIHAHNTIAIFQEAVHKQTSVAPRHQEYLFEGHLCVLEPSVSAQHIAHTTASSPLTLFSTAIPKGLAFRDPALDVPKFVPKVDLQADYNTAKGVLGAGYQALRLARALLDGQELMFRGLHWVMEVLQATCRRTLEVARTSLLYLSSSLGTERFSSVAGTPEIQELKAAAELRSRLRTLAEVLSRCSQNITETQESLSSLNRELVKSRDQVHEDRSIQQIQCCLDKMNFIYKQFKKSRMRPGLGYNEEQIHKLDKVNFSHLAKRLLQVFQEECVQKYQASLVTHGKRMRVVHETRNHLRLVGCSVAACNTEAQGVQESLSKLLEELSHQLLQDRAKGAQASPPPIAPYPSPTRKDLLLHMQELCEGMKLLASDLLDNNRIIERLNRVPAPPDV
Briefly: Selectivity interaction (Kinase panel (KiNativ target engagement assay in Jurkat cells)) EUB0001635a IKBKE. The format is cell-based. To be noted: at 1 µM.

Sequence of Protein kinase C delta type (Homo sapiens) (Q05655 whole entry, looked up): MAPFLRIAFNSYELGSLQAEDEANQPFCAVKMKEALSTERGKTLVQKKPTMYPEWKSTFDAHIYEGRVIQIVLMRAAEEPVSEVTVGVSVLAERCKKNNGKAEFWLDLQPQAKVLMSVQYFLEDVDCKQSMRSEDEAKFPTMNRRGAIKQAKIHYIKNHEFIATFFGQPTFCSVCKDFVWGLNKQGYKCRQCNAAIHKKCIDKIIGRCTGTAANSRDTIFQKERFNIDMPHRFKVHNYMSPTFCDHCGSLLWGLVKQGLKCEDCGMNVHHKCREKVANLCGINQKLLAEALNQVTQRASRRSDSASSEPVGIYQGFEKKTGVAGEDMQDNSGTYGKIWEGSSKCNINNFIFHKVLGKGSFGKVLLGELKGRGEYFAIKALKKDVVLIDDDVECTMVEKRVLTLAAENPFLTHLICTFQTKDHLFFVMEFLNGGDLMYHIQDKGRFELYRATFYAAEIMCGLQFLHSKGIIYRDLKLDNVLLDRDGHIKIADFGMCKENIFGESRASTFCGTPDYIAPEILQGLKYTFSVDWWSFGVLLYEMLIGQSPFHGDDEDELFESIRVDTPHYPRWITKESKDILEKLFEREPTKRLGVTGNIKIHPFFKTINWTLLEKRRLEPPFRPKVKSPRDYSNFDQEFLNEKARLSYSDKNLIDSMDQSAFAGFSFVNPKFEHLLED
Sequence of Activin receptor type-2B (Homo sapiens) (Q13705 whole entry): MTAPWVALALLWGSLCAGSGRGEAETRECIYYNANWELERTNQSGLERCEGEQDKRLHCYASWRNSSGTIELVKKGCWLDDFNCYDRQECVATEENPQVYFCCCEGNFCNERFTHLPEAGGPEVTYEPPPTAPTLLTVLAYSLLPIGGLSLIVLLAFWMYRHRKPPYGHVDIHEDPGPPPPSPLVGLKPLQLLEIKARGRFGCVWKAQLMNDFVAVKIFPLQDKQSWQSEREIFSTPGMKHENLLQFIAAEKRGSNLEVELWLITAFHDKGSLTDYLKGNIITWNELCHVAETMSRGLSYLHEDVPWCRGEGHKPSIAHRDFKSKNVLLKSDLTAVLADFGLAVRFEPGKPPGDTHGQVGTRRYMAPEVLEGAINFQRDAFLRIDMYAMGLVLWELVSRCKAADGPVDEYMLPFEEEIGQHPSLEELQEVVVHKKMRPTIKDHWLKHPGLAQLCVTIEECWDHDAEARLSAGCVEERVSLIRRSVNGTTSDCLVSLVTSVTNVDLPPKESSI

Turning to `Cc1cc([C@@H](C)Nc2ccccc2C(=O)O)c2nc(N3CCOCC3)cc(=O)n2c1` [AZD-6482], in assay [1], the % of control amounted to 100%.
For the molecule `CN(C)C/C=C/C(=O)Nc1ccc(C(=O)N2CCCC(Nc3ncc(Cl)c(-c4c[nH]c5ccccc45)n3)C2)cc1` (stereo unspecified), the % of control in assay [2] was 90%.
Turning to `O[C@H]1CC[C@H](Nc2ncc3nc(Nc4c(F)cc(F)cc4F)n([C@H]4CCOC4)c3n2)CC1`, in assay [3], the % of control is 100%.
Take `CCC(=O)N1CCN(c2ccc(-n3c(=O)ccc4cnc5ccc(-c6cnc7ccccc7c6)cc5c43)cc2C(F)(F)F)CC1`: the % of control in assay [4] stood at 82%.
For `C=CC(=O)Nc1ccc(C(=O)Nc2[nH]nc3c2CN(C(=O)N[C@H](CN(C)C)c2ccccc2)C3(C)C)cc1`, the % of engagement is 28.4% in assay [5] (Selectivity number of off-targets 0.0, Selectivity number of targets 233.0, Source Knowledge https://www.sciencedirect.com/science/article/pii/S2451945619300674?via%3Dihub) and 32.7% in assay [5].
